Test [1] concerns Jurkat HIV-luciferase clones. Briefly: Jurkat latency reversal assay. To be noted: Homo sapiens, 48 h; Jurkat latency reversal assay potency; read-out: Jurkat pEC50 (converted). The format is cell-based. The essentials:
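Latency reversal was scored as provirus-driven luciferase luminescence in pooled Jurkat HIV-luc clones after 48 h compound exposure at 37° C. EC50 and maximal activation over vehicle were fitted with a four-parameter logistic model.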

Test [2] concerns the target cIAP1-BIR3 (Homo sapiens (Human), UniProt Q13490). Briefly: BIR binding assay (FRET competition), cIAP1 BIR3. To be noted: for cIAP1 BIR3 vs BIR2 separation window: fold separation (FS) for cIAP1. The essentials: (§1)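 Each domain is run separately at its own level: 50 nM cIAP1-BIR3, 100 nM XIAP-BIR3, 325 nM for cIAP1-BIR2 or cIAP2-BIR2. Probe is a 200 nM fluorescent SMAC peptide, and the value is IC50 from FRET competition.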

For test [3], the target named is cIAP1-BIR2 (Homo sapiens (Human), UniProt Q13490). Briefly: BIR binding assay (FRET competition), cIAP1 BIR2. The essentials: as §1
cIAP1-BIR2, sequence (Q13490 173-257): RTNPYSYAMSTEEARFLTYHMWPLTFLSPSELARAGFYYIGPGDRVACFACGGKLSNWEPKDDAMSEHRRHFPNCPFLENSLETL
Test [4] deals with cIAP2-BIR3 (Homo sapiens (Human), UniProt Q13489). Briefly: BIR binding assay (FRET competition), cIAP2 BIR3. The following applies: for cIAP2 BIR3 vs BIR2 separation window: fold separation (FS) for cIAP2.
cIAP2-BIR3, sequence (Q13489 238-349): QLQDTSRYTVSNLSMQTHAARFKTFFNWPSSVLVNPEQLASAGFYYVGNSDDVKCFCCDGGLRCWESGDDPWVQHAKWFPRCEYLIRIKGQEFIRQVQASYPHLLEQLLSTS
For test [5], the target named is cIAP2-BIR2 (Homo sapiens (Human), UniProt Q13489). Briefly: BIR binding assay (FRET competition), cIAP2 BIR2. The method, boiled down:
as §1

Test [6] addresses XIAP-BIR3 (Homo sapiens (Human), UniProt P98170). Briefly: BIR binding assay (FRET competition), XIAP BIR3. The following applies: for XIAP BIR3 vs BIR2 separation window: fold separation (FS) for XIAP. The method, boiled down:
as §1

For test [7], the target named is XIAP-BIR2 (Homo sapiens (Human), UniProt P98170). Briefly: BIR binding assay (FRET competition), XIAP BIR2. To be noted: read-out: XIAP BIR2 (pIC50) (converted). The method, boiled down: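 Compounds in a 15-point, 3-fold series competed with an AlexaFluor647 SMAC peptide (AVPIAQKSE, 200 nM) for 200 nM His-tagged XIAP-BIR2 over 60 min in pH 7.4 HEPES/CHAPS/DTT buffer. Eu-W1024 (2 nM) was then added for 30 min. IC50 and pIC50 were derived from the 615 nm/665 nm emission ratio by variable-slope fit.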
XIAP-BIR2, sequence (P98170 124-240): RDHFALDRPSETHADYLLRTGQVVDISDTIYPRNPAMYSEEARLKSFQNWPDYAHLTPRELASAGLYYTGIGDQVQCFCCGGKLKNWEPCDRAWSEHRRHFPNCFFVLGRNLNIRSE

Where two headings read alike, the source gives them in different places.

We go through three compounds from patent publication US20250326771A1, “PIPERAZINE DERIVATIVES USEFUL IN HIV THERAPY” (VIIV HEALTHCARE COMPANY, priority 2022, published 2025).

cIAP2-BIR2, sequence (Q13489 158-242): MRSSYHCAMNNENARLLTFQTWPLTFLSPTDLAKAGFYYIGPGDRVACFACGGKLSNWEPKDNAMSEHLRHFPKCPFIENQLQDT
XIAP-BIR3, sequence (P98170 241-356): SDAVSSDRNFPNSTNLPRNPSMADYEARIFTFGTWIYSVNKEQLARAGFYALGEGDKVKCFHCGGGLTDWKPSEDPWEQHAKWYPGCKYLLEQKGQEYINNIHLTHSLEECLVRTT
cIAP1-BIR3, sequence (Q13490 253-363): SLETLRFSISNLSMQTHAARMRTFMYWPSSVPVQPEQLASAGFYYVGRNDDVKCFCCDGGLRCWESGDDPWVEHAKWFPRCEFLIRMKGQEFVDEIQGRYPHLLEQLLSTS

With `C[C@@H]1CN(CC(=O)N2CC(C)(C)c3[nH]c(=O)c(Cc4ccc(F)cc4)cc32)[C@@H](CN2CCC(CC(=O)NCc3ccc(CNC(=O)CC4CCN(C[C@H]5CN[C@H](C)CN5CC(=O)N5CC(C)(C)c6[nH]c(=O)c(Cc7ccc(F)cc7)cc65)CC4)cc3)CC2)CN1` [Example 105, N,N′-(1,4-phenylenebis(methylene))bis(2-(1-(((2R,5R)-1-(2-(6-(4-fluorobenzyl)-3,3-dimethyl-5-oxo-2,3,4,5-tetrahydro-1H-pyrrolo[3,2-b]pyridin-1-yl)-2-oxoethyl)-5-methylpiperazin-2-yl)methyl)piperidin-4-yl)acetamide)], in test [1], the EC50 is 63.1 to 316 nM. Moreover, the IC50 in test [2] was 7.94 to 15.8 nM; in test [3] it was 3160 to 10000 nM; in test [4] it was 7.94 to 15.8 nM; in test [5], 3160 to 10000 nM; in test [6] it was 7.94 to 15.8 nM; in test [7] (FRET competition binding), 10000 to 51300 nM. Moreover, in test [2], the “cIAP1 BIR3 vs BIR2 separation window” value was “+++ (10,000>FS>1,000)”. In addition, the “cIAP2 BIR3 vs BIR2 separation window” value in test [4] is “+++ (10,000>FS>1,000)”. Further, the “XIAP BIR3 vs BIR2 separation window” value in test [6] is reported as “++++ (FS>10,000)”.

Regarding `C[C@@H]1CN(CC(=O)N2CC(C)(C)c3[nH]c(=O)c(Cc4ccc(F)cc4)cc32)[C@@H](CN2CCC(CN(C)C(=O)Cc3cccc(C(=O)N(C)CC4CCN(C[C@H]5CN[C@H](C)CN5CC(=O)N5CC(C)(C)c6[nH]c(=O)c(Cc7ccc(F)cc7)cc65)CC4)c3)CC2)CN1` [Example 98, N-((1-(((2R,5R)-1-(2-(6-(4-fluorobenzyl)-3,3-dimethyl-5-oxo-2,3,4,5-tetrahydro-1H-pyrrolo[3,2-b]pyridin-1-yl)-2-oxoethyl)-5-methylpiperazin-2-yl)methyl)piperidin-4-yl)methyl)-3-(2-(((1-(((2R,5R)-1-(2-(6-(4-fluorobenzyl)-3,3-dimethyl-5-oxo-2,3,4,5-tetrahydro-1H-pyrrolo[3,2-b]pyridin-1-yl)-2-oxoethyl)-5-methylpiperazin-2-yl)methyl)piperidin-4-yl)methyl)(methyl)amino)-2-oxoethyl)-N-methylbenzamide], the EC50 in test [1] is 63.1 to 316 nM. Moreover, the IC50 in test [2] was 1.38 to 7.94 nM; in test [3] it was 1000 to 3160 nM; in test [4] it was 1.38 to 7.94 nM; in test [5], 10000 to 51300 nM; in test [6], 7.94 to 15.8 nM; in test [7] (FRET competition binding), 10000 to 51300 nM. In addition, the “cIAP1 BIR3 vs BIR2 separation window” value in test [2] is reported as “+++ (10,000>FS>1,000)”. Also, the “cIAP2 BIR3 vs BIR2 separation window” value in test [4] is “+++ (10,000>FS>1,000)”. In test [6], the “XIAP BIR3 vs BIR2 separation window” value is listed as “++++ (FS>10,000)”.

Turning to `Cc1ccc(Oc2cc3c([nH]c2=O)C(C)(C)CN3C(=O)CN2C[C@@H](C)NC[C@@H]2CN2CCO[C@H](C(=O)NCc3ccc(CNC(=O)[C@@H]4CN(C[C@H]5CN[C@H](C)CN5CC(=O)N5CC(C)(C)c6[nH]c(=O)c(Oc7ccc(C)cc7)cc65)CCO4)cc3)C2)cc1` [Compound 184, (2S,2′S)-N,N′-(1,4-phenylenebis(methylene)) bis(4-(((2R,5R)-1-(2-(3,3-dimethyl-5-oxo-6-(p-tolyloxy)-2,3,4,5-tetrahydro-1H-pyrrolo[3,2-b]pyridin-1-yl)-2-oxoethyl)-5-methylpiperazin-2-yl)methyl)morpholine-2-carboxamide)], in test [1], the EC50 is 316 to 3310 nM. In addition, the IC50 in test [2] is 7.94 to 15.8 nM; in test [3], 3160 to 10000 nM; in test [4] it was 1.38 to 7.94 nM; in test [5] it was 3160 to 10000 nM; in test [6] it was 31.6 to 501 nM; in test [7] (FRET competition) it was 10000 to 51300 nM. Moreover, the “cIAP1 BIR3 vs BIR2 separation window” value in test [2] is recorded as “+++ (10,000>FS>1,000)”. Also, the “cIAP2 BIR3 vs BIR2 separation window” value in test [4] is given as “++++ (FS>10,000)”. Besides, the “XIAP BIR3 vs BIR2 separation window” value in test [6] is given as “+++ (10,000>FS>1,000)”.
